A short description of data set [1]: Cmax in Sprague-Dawley rat at 5 mg/kg, po by LC-MS/MS analysis. The class given is ADME, organism-based. The conditions noted are these: in vivo. Also on record: dose 5 mg/kg, route oral.
The nature of data set [2]: Drug level in tumor of nude BALB/c mouse xenografted with human HCT116 cells at 20 mg/kg, po administered as single dose measured after 48 hrs by LC-MS/MS analysis. The class given is ADME, organism-based, Neoplasm. As to conditions: read-out: Drug uptake.
The nature of data set [3]: Oral bioavailability in Sprague-Dawley rat at 5 mg/kg by LC-MS/MS analysis. Format: ADME, organism-based. The conditions noted are these: in vivo.
Data set [4] can be described thus: Half life in Sprague-Dawley rat at 5 mg/kg, po by LC-MS/MS analysis. The class given is ADME, organism-based. The conditions noted are these: in vivo.
Data set [5] can be described thus: Clearance in Sprague-Dawley rat at 1 mg/kg, iv by LC-MS/MS analysis. Format: ADME, organism-based. The conditions noted are these: in vivo.
Data set [6] in a line: Volume of distribution at steady state in Sprague-Dawley rat at 1 mg/kg, iv by LC-MS/MS analysis. The class given is ADME, organism-based. The conditions noted are these: in vivo, read-out: Vdss.
The nature of data set [7]: AUC (0 to infinity) in Sprague-Dawley rat at 1 mg/kg, iv by LC-MS/MS analysis. Format: ADME, organism-based. The conditions noted are these: in vivo. More on the design: dose 1 mg/kg, time infinity, route intravenous.
The nature of data set [8]: AUC (0 to infinity) in Sprague-Dawley rat at 5 mg/kg, po by LC-MS/MS analysis. Format: ADME, organism-based. More on the design: dose 5 mg/kg, route oral, time infinity. The conditions noted are these: in vivo.
Data set [9] in a line: Half life in Sprague-Dawley rat at 1 mg/kg, iv by LC-MS/MS analysis. Format: ADME, organism-based. As to conditions: in vivo.

Molecule `COc1ncc(-c2ccc3ncc(-c4nnc(CCN5CCN(C)CC5)o4)n3c2)cc1NS(=O)(=O)c1ccc(F)cc1F` displayed a Cmax in data set [1] of 553 ng/mL. In data set [2], the concentration at 48 h was 600 nM. This molecule also showed a bioavailability in [3] of 26.8%. Further, the half-life was 7.94 h in data set [4] and 4.71 h in data set [9]. In addition, in data set [5], the clearance was 5.66 mL/min/kg. The Vd in data set [6] came to 0.69 L/kg. Moreover, the results for the AUC(0-inf) in data set [7] and in data set [8] were 2960 ng·h/mL and 3960 ng·h/mL, respectively.

The record behind these values is ChEMBL document CHEMBL4354853, “Design, Synthesis, and Biological Evaluation of Imidazo[1,2-a]pyridine Derivatives as Novel PI3K/mTOR Dual Inhibitors” (J Med Chem, 2020).
